Data taken from patent publication US20240423888A1, “COSMETIC AND/OR DERMATOLOGICAL COMPOSITION COMPRISING AT LEAST ONE MEROCYANINE AND AT LEAST ASCORBIC ACID AND/OR A DERIVATIVE THEREOF” (L'OREAL, priority 2021, published 2024).

System: normal human dermal fibroblasts (NHDF)
Test: Procollagen I assay (ELISA) in culture medium of normal human dermal fibroblasts exposed to UVA, formulas spread on PMMA plates placed over the cells
Assay type: cell-based
Conditions: for Mean procollagen 1 (normalized by Cyquant signal and relative to the unexposed Control): 48 hours after last exposure
Description: The efficacy of a combination in accordance with the invention and outside the invention is tested by assaying procollagen 1 in a culture medium of normal human dermal fibroblasts exposed to UVA.
• Normal human dermal fibroblasts (NHDF) obtained from a mammary plasty. • Culture: 37° C., 5% CO2. • Culture medium and test medium: MEM (Gibco 21090-022) containing 10% foetal calf serum (FCS) (Gibco 10270-098), 2 mM L-glutamine (Gibco 25030-024), 1 mM sodium pyruvate (Gibco 11360-039), 1× non-essential amino acids (Gibco 11140-035), 250 ng/ml amphotericin B (Gibco 15290-018) and penicillin/streptomycin 20 U/20 […].
The normal human dermal fibroblasts were seeded in complete MEM medium and incubated for 72 h at 37° C. and 5% CO2.
The cells are then exposed for 3 consecutive days to a dose of 25 J/cm^2 of total UVA using an Oriel solar simulator fitted with a WG335 filter. Depending on the conditions, a PMMA plate to which the formula comprising the screening agents according to the invention or outside the invention or the Placebo formula is applied is placed over the cells during exposure. After each exposure, the cells are treated or not with ascorbic acid (10 μM) diluted in the culture medium. The cells are then incubated at 37° C., 5% CO2. 48 hours after the last exposure, a cell viability test (XTT Roche cat. 11465015001) is performed, and the number of cells in each well is evaluated by means of a Cyquant assay (Molecular Probes C7026). The media are collected and a procollagen I assay is performed by ELISA (Abcam ab210966). Each experimental condition is performed in duplicate or triplicate and at least three independent experiments are performed.

[1] = 25 J/cm^2 total UVA on 3 consecutive days, formula 1.3 mg/cm^2 on PMMA plate over the cells, ascorbic acid 10 μM where given

O=C1O[C@H]([C@@H](O)CO)C(O)=C1O [VitC, ascorbic acid]
relative % relative to the control 0 J (0 J/cm^2 (unexposed), ascorbic acid 10 μM): +260.5%
Mean procollagen 1 (normalized by Cyquant signal and relative to the unexposed Control) (0 J/cm^2 (unexposed), ascorbic acid 10 μM, unexposed Control = 100): 360.5
relative % relative to the control 0 J [1]: +29.7%
Mean procollagen 1 (normalized by Cyquant signal and relative to the unexposed Control) [1]: 129.7
secretion of procollagen 1 by the fibroblasts (ascorbic acid tested at 10 μM, result in words): significantly increased
ability of ascorbic acid to induce procollagen 1 secretion (effect of UVA, result in words): significantly reduced
